The results in this text go back to patent publication US10842765B2, “Methods of reducing or preventing oxidation of small dense ldl or membrane polyunsaturated fatty acids” (Amarin Pharmaceuticals Ireland Limited, priority 2016, dated 2020).

Structures are written as SMILES. Values joined by “and” are separate entries in the source; they are usually repeats but may differ in a detail not shown here. Equal entries are not always repeated.

Experiment [1] is described as follows: Glucose-induced membrane lipid peroxidation (LOOH) in lipid vesicles, Example 4. The class given is biochemical. The settings on record: 1.0 μM; glucose 200 mg/dL; 96 hours. The procedure: An experiment was conducted to test the ability of EPA to interfere with the effects of high glucose on membrane lipid peroxidation and organization in vesicles enriched with PUFAs. […] Vitamin E (α-tocopherol) was also purchased from Sigma-Aldrich and prepared in ethanol at 1.0 mM (ε=3.06×10^4 M^−1 cm^−1 at 294 nm) just prior to experimental use. […] All test compounds were further diluted in ethanol or aqueous buffer as needed. Glucose was prepared in saline buffer (0.5 mM HEPES, 154 mM NaCl, pH 7.3) at 11.0 mM (200 mg/dL). CHOD-iodide color reagent (stock) was prepared, with slight modification, as described by from El-Saadani et al. (J. […] Samples were shell-dried under nitrogen gas and placed under vacuum for 1 h to remove residual solvent. […] Lipid suspensions were then vortexed for 3 min at ambient temperature to form MLVs. All MLV samples were subjected to time-dependent autoxidation by incubating at 37° C. in an uncovered, shaking water bath. This method allows lipid peroxidation to occur gradually without requiring the use of exogenous initiators. Small aliquots (5-100 μL) of each sample were removed, immediately following MLV preparation (0 hour) and after exposing samples to oxidative conditions for 72 or 96 hour, and combined with 1.0 mL of activated CHOD-iodide color reagent. Aliquot volume was reduced with each successive time point to ensure that spectrophotometric readings were within the optimal adsorption range. Test samples were covered and incubated in darkness at room temperature for at least 4 hr. Sample absorbances were then measured against a CHOD blank at 365 nm using a Beckman DU-640 spectrophotometer. The CHOD colorimetric assay is based on the oxidation of iodide (I^−) by lipid hydroperoxide (LOOH) to form triiodide (I3^−), the quantity of which is directly proportional to the amount of LOOH present in the lipid sample. The molar absorptivity (I3^−) of I3^− is 2.46×10^4 M^−1 cm^−1 at 365 nm. […]

Another experiment relates to human sdLDL. The experiment in a line: Copper-induced sdLDL oxidation, TBARS, Example 7. It counts as biochemical.
For a further experiment, the system named is human LDL. Nature of the experiment: Copper-induced unfractionated LDL oxidation, TBARS, Example 7. The class given is biochemical. The settings on record: beginning at 1.0 μM; 1 hour.
The subject of experiment [2] is rat renal glomerular endothelial cells. The experiment in a line: NO and ONOO- release ex vivo from glomerular endothelial cells exposed to oxLDL and high glucose, Example 13. The class given is cell-based. The settings on record: 10.0 μM, 1 hr; oxLDL 11 mg/dL and glucose 300 mg/dL; vs vehicle. On the procedure: Healthy male Wistar Kyoto (WKY) rats, aged 7-9 weeks and weighing 250±20 g, were obtained from inbred colonies (National Institutes of Health, Bethesda, Md.). Animals were housed in a controlled environment that provided food and water ad libitum prior to the study. […] Animals were sacrificed and tissue samples obtained immediately for experimentation. All procedures were conducted in accordance with standard Institutional Animal Care and Use Committee guidelines and conformed to the Guide for the Care and Use of Laboratory Animals published by the US National Institutes of Health.
EPA and DHA were purchased from Sigma-Aldrich (St. Louis, Mo.) and solubilized in ethanol to 1.0 mM under nitrogen atmosphere. […]
LDL was oxidized according to the methods of Huber et al. 16 Briefly, the purified LDL fraction was dialyzed against Tris/NaCl Buffer (50 mM Tris in 0.15 M NaCl, pH 8.0) to remove EDTA. […] LDL oxidation was initiated with 20 μM CuSO4 and monitored spectrophotometrically (234 nm) over a period of 24 hours until complete. […]
Each analyte was measured from amperograms and standard calibration curves collected under maximum current. […] Changes in current (proportional to the molar concentrations of NO or ONOO^− released) were monitored continuously immediately following Cal stimulation. […]

The test system of the next experiment is HUVECs. The experiment in a line: NO and ONOO- release from HUVECs exposed to oxLDL (nanosensors), Example 8. The class given is cell-based, human. The settings on record: ECs exposed to oxLDL. On the procedure: Human umbilical vein endothelial cells (HUVECs) were isolated into primary cultures from female donors by Clonetics (San Diego, Calif.) and purchased as proliferating cells. All cell culture donors were healthy, with no pregnancy or prenatal complications. […] The confluent cells (4 to 5×10^5 cells/35 mm dish) were placed with minimum essential medium containing 3 mM L-arginine and 0.1 mM BH4 [(6R)-5,6,7,8-tetrahydrobiopterin]. Before experimental use, the cells (from second or third passage) were rinsed twice with Tyrode-HEPES buffer with 1.8 mM CaCl2. […]
Oxidation was monitored by the use of measurements of TBARS. […] TBARS concentration was determined as malondialdehyde (MDA) equivalents with the use of an MDA standard curve. […]
The amperometric method (with a response time of 0.1 ms) provides a quantitative signal (current) that is directly proportional to changes (from basal levels) in NO or ONOO^− concentration. […] Basal NO or ONOO^− levels were measured by differential pulse voltammetry in separate experiments. […]
Data are presented as mean±S.D. for (N) separate samples or experiments. Differences between groups were analyzed using the two-tailed, Student t-test (for comparisons between only two groups) or ANOVA followed by Student-Newman-Keuls multiple comparisons post-hoc analysis (for comparisons between three or more groups). […]

Experiment [3] is described as follows: X-ray diffraction of membrane cholesterol domains in POPC/cholesterol model membranes, Example 9. The settings on record: C/P 1.5:1. On the procedure:
The fatty acid stock solutions were stored at −20° C. until use.
Samples were shell-dried under nitrogen gas and placed under vacuum for 3 hours to remove residual solvent at room temperature. After desiccation, each sample was resuspended in saline buffer (0.5 mM HEPES, 154 mM NaCl, pH 7.3) to yield a final phospholipid concentration of 2.5 mg/mL. Lipid suspensions were then vortexed for 3 minutes at ambient temperature to form MLVs.
Briefly, a 100 μL aliquot of each MLV preparation (containing 250 μg MLV) was transferred to a Lucite® sedimentation cell fitted with an aluminum foil substrate designed to collect MLVs into a single membrane pellet upon centrifugation.
After centrifugal orientation, sample supernatants were aspirated and aluminum foil substrates, each supporting a single membrane pellet, were removed from the sedimentation cells. Sample pellets were dried for 5-10 minutes at ambient conditions, mounted onto curved glass supports, and placed in hermetically-sealed, brass or glass containers (for immediate analysis or temporary storage, respectively). All x-ray diffraction experiments were conducted at 20° C., 74% relative humidity. The latter was established by exposing membrane samples to saturated solutions of L-(+)-tartaric acid (K2C4H4O6.½H2O) for at least 1 hour prior to experimental analysis. […]

Protocol for human sdLDL: Samples were prepared at 100 μg/mL sdLDL and incubated with EPA or DHA (10.0 μM each) for 30 minutes prior to initiating lipid oxidation using 10 μM CuSO4. Samples were maintained at 37° C. in a shaking water bath for 1 hour. Lipid oxidation was measured by colorimetric assay of TBARS formation and expressed as molar equivalents of MDA.
An experiment to study the antioxidant effect of EPA in LDL and small dense LDL (“sdLDL”) was performed. LDL and sdLDL were isolated from the plasma of healthy volunteers by iodixanol density gradient ultracentrifugation, and adjusted to a final apolipoprotein concentration of 2 mg/mL. […] Lipid oxidation was initiated with 10 μM CuSO4 and monitored by the colorimetric detection of thiobarbituric acid reactive substances (TBARS) for 1 hr. Vitamin E was also incubated with sample aliquots as a positive control.

On to `CC(C)c1c(C(=O)Nc2ccccc2O)c(-c2ccccc2)c(-c2ccc(F)cc2)n1CC[C@@H](O)C[C@@H](O)CC(=O)O` [ATM, Ortho (o)-hydroxy atorvastatin metabolite], for which the “antioxidant effects, separate treatments” value in experiment [1] was “separate and potent antioxidant effects”. Moreover, in the experiment on human sdLDL (ATM at the highest dose, 1 hr), the “inhibition of sdLDL oxidation vs vehicle” value is 90±2%. In addition, the “inhibition of unfractionated LDL oxidation, dose dependence” value in the experiment on human LDL is “significant and dose-dependent inhibition of unfractionated LDL oxidation”. For the same compound, the “reduction in ONOO^− release” value in experiment [2] was 25%.

For `CC/C=C\C/C=C\C/C=C\C/C=C\C/C=C\CCCC(=O)O` [EPA, cis-5,8,11,14,17-eicosapentaenoic acid], in experiment [1], the “antioxidant effects, separate treatments” value is “separate and potent antioxidant effects”. Also, the “inhibition of sdLDL oxidation as compared to vehicle or DHA” value in the experiment with human sdLDL (10.0 μM, after 4 hours) was “significantly inhibited sdLDL oxidation”. For the same compound, the “inhibition of sdLDL oxidation (TBARS formation) vs vehicle” value with human sdLDL (each agent 10 μM, 1 hr) was 93±2% and 92±8%. Moreover, the “increase in NO release as compared to vehicle” value in the experiment with HUVECs amounted to 45%. Moreover, the “Relative Chotesterol Domain Peak Intensity” value came to 29.5 ± 10.9 in experiment [3] (EPA D/P mole ratio 1:60) and 36.0 ± 3.1 in experiment [3] (EPA D/P mole ratio 1:90).
